According to patent US9045531B2, “HLA-binding peptide, precursor thereof, and DNA fragment and recombinant vector coding for said HLA-binding peptide” (NEC CORPORATION, priority 2006, dated 2015):
No end group written: not given here.

Experiments:
[1] = system: human HLA-A type molecule; assay: Binding experiments, summary statement for HLA-A type molecules; details: summary of the binding experiments
Experimental: The ability of a peptide to bind to an HLA-A2 molecule, which is a product of the HLA-A*0201 gene, was measured using strain JY cells (obtained from ATCC (American Type Culture Collection)) expressing the HLA-A*0201.
The ability of a peptide to bind to an HLA-A2 molecule, which is a product of the HLA-A*0206 gene, was measured using RA2.6 cells (cell strain newly prepared in Kochi University) in which cDNA of the HLA-A*0206 gene is expressed in RAMS cells, which are mouse TAP peptide transporter deficient cells.

[2] = system: HLA-A24 molecule (product of the HLA-A*2402 gene); assay: Experiment of binding peptide to HLA-A2402 molecule (C1R-A24 cells, flow cytometry); parameters: species or system human; details: HLA-A24 (HLA-A*2402)
Experimental: The ability of a peptide to bind to an HLA-A24 molecule, which is a product of the HLA-A*2402 gene, was measured using C1R-A24 cells expressing the HLA-A24 gene (cells produced by Professor Masafumi Takiguchi, Kumamoto University being supplied with permission).
After neutralization, purified β2m was added to C1R-A24 cells, the obtained product was added to serial dilutions of a peptide, and incubated on ice for 4 hours.
Subsequently, the MHC-pep count per C1R-A24 cell (proportional to the strength of fluorescence of the above-mentioned fluorescent antibody) was quantitatively measured using a FACScan fluorescence-activated cell sorter (Becton Dickinson Biosciences). A binding dissociation constant Kd value between the HLA-A24 molecule and the peptide was calculated from the average strength of fluorescence per cell by a published method (Udaka et al., Immunogenetics, 51, 816-828, 2000).

| Sequence | binding to a human HLA-A type molecule (result in words) [1] | Binding Experiment Data (−log Kd value) [2] |
| --- | --- | --- |
| YLEENPSAG [SEQ ID NO: 26] | experimentally confirmed to bind | – |
| LIFLARSAL [SEQ ID NO: 52, LIFLARSAL] | experimentally confirmed to bind | – |
| VGIDPFRLL [SEQ ID NO: 12] | experimentally confirmed to bind | 5.12 |
| FQGRGVFEL [SEQ ID NO: 48] | experimentally confirmed to bind | – |
| IYRRRDGKW [SEQ ID NO: 10] | experimentally confirmed to bind | 7.497 |
| IFLARSALI [SEQ ID NO: 4] | experimentally confirmed to bind | 8.012 |
| LQNSQVFSL [SEQ ID NO: 49] | experimentally confirmed to bind | – |
| GQISVQPTF [SEQ ID NO: 5] | experimentally confirmed to bind | 7.191 |
| ATSPIVPSF [SEQ ID NO: 9] | experimentally confirmed to bind | 7.802 |
| ATNPVVPSF [SEQ ID NO: 7] | experimentally confirmed to bind | 7.808 |
| NLPFERATI [SEQ ID NO: 25] | experimentally confirmed to bind | – |
| RLLQNSQVF [SEQ ID NO: 2] | experimentally confirmed to bind | 6.915 |
| RMVSGIGRF [SEQ ID NO: 15] | experimentally confirmed to bind | 7.436 |
| DMNNEGSYF [SEQ ID NO: 18] | experimentally confirmed to bind | 5.374 |
| LILYDKEEI [SEQ ID NO: 51] | experimentally confirmed to bind | – |
| IYKRREGKW [SEQ ID NO: 13] | experimentally confirmed to bind | 7.25 |
| DMSNEGSYF [SEQ ID NO: 16] | experimentally confirmed to bind | – |
| NLPFERATI [SEQ ID NO: 8] | – | 7.764 |
| YLEEHPSAG [SEQ ID NO: 21] | experimentally confirmed to bind | – |
| SLPFERATI [SEQ ID NO: 11] | experimentally confirmed to bind | 7.719 |
| WMACHSAAF [SEQ ID NO: 1] | experimentally confirmed to bind | – |
| RMVGGIGRF [SEQ ID NO: 14] | experimentally confirmed to bind | 7.543 |
| ATNPIVPSF [SEQ ID NO: 6] | experimentally confirmed to bind | 7.564 |
| RLIQNSITI [SEQ ID NO: 3] | experimentally confirmed to bind | – |
| IYKRRDGKW [SEQ ID NO: 17] | experimentally confirmed to bind | 7.326 |
